One molecule from ChEMBL document CHEMBL4219148, “Discovery of a highly potent orally bioavailable imidazo-[1, 2-a]pyrazine Aurora inhibitor” (Bioorg Med Chem Lett, 2018) can be followed below.

Data set [1] can be described thus: Volume of distribution in rat at 10 mg/kg, iv. It counts as ADME, organism-based. The following applies: in vivo.
Data set [2] can be described thus: Equilibrium solubility of the compound in citrate buffer at pH 5.3 by HPLC method. Format: physicochemical.
Data set [3] addresses Ribosomal protein S6 kinase. In words: Inhibition of S6K (unknown origin). It counts as protein assay, Homo sapiens.

Values after ≈ are worked out from the molar mass of the structure shown.

The term Vd denotes the apparent volume that relates the amount in the body to the concentration in plasma or blood. What is called thermodynamic solubility is solubility found after equilibrating the solid with the medium. The IC50 is the midpoint of a concentration-inhibition curve. A low value points to inhibition by little substance. In data set [1], `Cc1cn2c(-c3cn[nH]c3)cnc2c(Nc2cc(C(NC(C)(C)C)c3ccccn3)ns2)n1` (single isomer, unassigned; (+)) had a Vd of 2.5 L/kg. Besides, in data set [2], the thermodynamic solubility is 5300 µg/mL (≈ 11.5 mM). In data set [3], this molecule yielded an IC50 of over 1000 nM.
